Data reported in the supplement of paper PMC11208160.

Assay: recombinant UMI read abundance after kanamycin selection (control-corrected) (log10(CPM+1)); higher = more efficient recombination; extreme values may be limits of the assay; sequences stand for … in AGTGCAGAGAAAATCGGCCAGTTTTCTCTGCCTGCAGTCCGCATGCCGTGGGACCCCTTGGGTTCTAACCTGTTGCCTAGATTTATGCAGCGGACTGCCTTTCTCCCAAAGTGATAAACCGG…AGGTTGGTTTCACT; site = the 11-nt donor
Method in brief: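 Sequenced counts of recombinant UMIs were turned into CPM, averaged across replicates and scaled with control-derived factors. The reported figure is log10(CPM+1). Those UMIs, each 12 nt long, tagged donor and donor-binding-loop pairs on a plasmid with a promoterless kanamycin gene, screened as a pool in Escherichia coli with IPTG (0.07 mM) plus kanamycin or without selection.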
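Note: IS621 bridge recombinase in Escherichia coli cells against a fixed T5 target plasmid.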

Sequence | recombinant UMI read abundance (log10)
AGGACTACATGGACCGGTTTTCCCGGTAATCCGTATTTGAC (site CGGACTACTGT) | 0.831
AGGACTACATGGACCGGTTTTCCCGGTAATCCGTATTTGAC (site GGGACTACTGT) | 0
AGGACTACATGGACCGGTTTTCCCGGTAATCCGTATTTGAC (site TGGACTACTGT) | 0.901
AGGACTACATGGACCGGTTTTCCCGGTAATCCGTATTTGCA (site AGGAAGACTTG) | 0
AGGACTACATGGACCGGTTTTCCCGGTAATCCGTATTTGCA (site AGGACTACTTG) | 2.22
AGGACTCCATGGACCGGTTTTCCCGGTAATCCGTATTTGAC (site AGGACTACTGT) | 0
AGGACTCCATGGACCGGTTTTCCCGGTAATCCGTATTTGAC (site AGGACTCCTGT) | 0.719
AGGACTCCATGGACCGGTTTTCCCGGTAATCCGTATTTGAC (site AGGACTGCTGT) | 0
AGGACTCCATGGACCGGTTTTCCCGGTAATCCGTATTTGAC (site AGGACTTCTGT) | 0
AGGACTGCATGGACCGGTTTTCCCGGTAATCCGTATTTGAC (site AGGACTACTGT) | 2.15
AGGACTGCATGGACCGGTTTTCCCGGTAATCCGTATTTGAC (site AGGACTCCTGT) | 0.533
AGGACTGCATGGACCGGTTTTCCCGGTAATCCGTATTTGAC (site AGGACTGCTGT) | 2.92
AGGACTGCATGGACCGGTTTTCCCGGTAATCCGTATTTGAC (site AGGACTTCTGT) | 0
AGGAGATCATGGACCGGTTTTCCCGGTAATCCGTATTTGGG (site AGGAGATCTCC) | 0.505
AGGAGGCCATGGACCGGTTTTCCCGGTAATCCGTATTTGCA (site AGGAAGACTTG) | 0
AGGAGGCCATGGACCGGTTTTCCCGGTAATCCGTATTTGCA (site AGGAGGCCTTG) | 0.211
AGGAGGGCATGGACCGGTTTTCCCGGTAATCCGTATTTGCC (site AGGAGGGCTGG) | 2.16
AGGAGTGCATGGACCGGTTTTCCCGGTAATCCGTATTTGAG (site AGGAGTGCTCT) | 2.37
AGGATAACATGGACCGGTTTTCCCGGTAATCCGTATTTGCA (site AGGAAGACTTG) | 1.01
AGGATAACATGGACCGGTTTTCCCGGTAATCCGTATTTGCA (site AGGATAACTTG) | 2.55
AGGATCTCATGGACCGGTTTTCCCGGTAATCCGTATTTGAA (site AGGATCTCTTT) | 2.92
AGGATGTCATGGACCGGTTTTCCCGGTAATCCGTATTTGCA (site AGGAAGACTTG) | 0.00922
AGGATGTCATGGACCGGTTTTCCCGGTAATCCGTATTTGCA (site AGGATGTCTTG) | 3.06
AGGCAGGCATGGACCGGTTTTCCCGGTAATCCGTATTTGCA (site AGGAAGACTTG) | 0
AGGCAGGCATGGACCGGTTTTCCCGGTAATCCGTATTTGCA (site AGGCAGGCTTG) | 2.63

Sequence | recombinant UMI read abundance (log10)
AGGCATACATGGACCGGTTTTCCCGGTAATCCGTATTTGCA (site AGGAAGACTTG) | 0
AGGCATACATGGACCGGTTTTCCCGGTAATCCGTATTTGCA (site AGGCATACTTG) | 2.15
AGGCGACCATGGACCGGTTTTCCCGGTAATCCGTATTTGTT (site AGGCGACCTAA) | 0.00859
AGGCTCCCATGGACCGGTTTTCCCGGTAATCCGTATTTGTG (site AGGATCCCTCA) | 0.00474
AGGCTCCCATGGACCGGTTTTCCCGGTAATCCGTATTTGTG (site AGGCTCCCTCA) | 0.0267
AGGCTCCCATGGACCGGTTTTCCCGGTAATCCGTATTTGTG (site AGGGTCCCTCA) | 0.0171
AGGCTCCCATGGACCGGTTTTCCCGGTAATCCGTATTTGTG (site AGGTTCCCTCA) | 0.0277
AGGGACCCATGGACCGGTTTTCCCGGTAATCCGTATTTGAA (site AGGGACCCTTT) | 0.531
AGGGAGACATGGACCGGTTTTCCCGGTAATCCGTATTTGTA (site AGGAAGACTTG) | 0
AGGGAGACATGGACCGGTTTTCCCGGTAATCCGTATTTGTA (site AGGGAGACTTA) | 1.57
AGGGGTCCATGGACCGGTTTTCCCGGTAATCCGTATTTGTA (site AGGGGTCCTTA) | 0.489
AGGTAATCATGGACCGGTTTTCCCGGTAATCCGTATTTGAG (site AGGTAATCTCT) | 2.83
AGGTACACATGGACCGGTTTTCCCGGTAATCCGTATTTGCA (site AGGAAGACTTG) | 0
AGGTACACATGGACCGGTTTTCCCGGTAATCCGTATTTGCA (site AGGTACACTTG) | 2.46
AGGTCAACATGGACCGGTTTTCCCGGTAATCCGTATTTGAT (site AGGTCAACTAT) | 0.075
AGGTCCCCATGGACCGGTTTTCCCGGTAATCCGTATTTGTG (site AGGTACCCTCA) | 0.0207
AGGTCCCCATGGACCGGTTTTCCCGGTAATCCGTATTTGTG (site AGGTCCCCTCA) | 0.0562
AGGTCCCCATGGACCGGTTTTCCCGGTAATCCGTATTTGTG (site AGGTGCCCTCA) | 0.0373
AGGTCCCCATGGACCGGTTTTCCCGGTAATCCGTATTTGTG (site AGGTTCCCTCA) | 0.00496
AGGTCCTCATGGACCGGTTTTCCCGGTAATCCGTATTTGGG (site AGGTCCTCTCC) | 0.0176
AGGTGACCATGGACCGGTTTTCCCGGTAATCCGTATTTGCC (site AGGTGACCTGG) | 0
AGGTGCACATGGACCGGTTTTCCCGGTAATCCGTATTTGAA (site AGGTGCACTTT) | 0.73
AGGTGCCCATGGACCGGTTTTCCCGGTAATCCGTATTTGTG (site AGGTACCCTCA) | 0.015
AGGTGCCCATGGACCGGTTTTCCCGGTAATCCGTATTTGTG (site AGGTCCCCTCA) | 0.0213
AGGTGCCCATGGACCGGTTTTCCCGGTAATCCGTATTTGTG (site AGGTGCCCTCA) | 0.0128

Sequence | recombinant UMI read abundance (log10)
AGGTGCCCATGGACCGGTTTTCCCGGTAATCCGTATTTGTG (site AGGTTCCCTCA) | 0.755
AGGTGGTCATGGACCGGTTTTCCCGGTAATCCGTATTTGCA (site AGGTGGTCTTG) | 2.62
AGGTTCCCATGGACCGGTTTTCCCGGTAATCCGTATTTGAG (site AGGTTCCCTCA) | 0
AGGTTCCCATGGACCGGTTTTCCCGGTAATCCGTATTTGAG (site AGGTTCCCTCC) | 0.0175
AGGTTCCCATGGACCGGTTTTCCCGGTAATCCGTATTTGAG (site AGGTTCCCTCG) | 0.00792
AGGTTCCCATGGACCGGTTTTCCCGGTAATCCGTATTTGAG (site AGGTTCCCTCT) | 0.00255
AGGTTCCCATGGACCGGTTTTCCCGGTAATCCGTATTTGTC (site AGGTTCCCTAA) | 0.0146
AGGTTCCCATGGACCGGTTTTCCCGGTAATCCGTATTTGTC (site AGGTTCCCTCA) | 0.0034
AGGTTCCCATGGACCGGTTTTCCCGGTAATCCGTATTTGTC (site AGGTTCCCTGA) | 0
AGGTTCCCATGGACCGGTTTTCCCGGTAATCCGTATTTGTC (site AGGTTCCCTTA) | 0
AGGTTCCCATGGACCGGTTTTCCCGGTAATCCGTATTTGTG (site AAGTTCCCTCA) | 0.0108
AGGTTCCCATGGACCGGTTTTCCCGGTAATCCGTATTTGTG (site ACGTTCCCTCA) | 0.0097
AGGTTCCCATGGACCGGTTTTCCCGGTAATCCGTATTTGTG (site AGATTCCCTCA) | 0.438
AGGTTCCCATGGACCGGTTTTCCCGGTAATCCGTATTTGTG (site AGCTTCCCTCA) | 0.0211
AGGTTCCCATGGACCGGTTTTCCCGGTAATCCGTATTTGTG (site AGGATCCCTCA) | 0.163
AGGTTCCCATGGACCGGTTTTCCCGGTAATCCGTATTTGTG (site AGGCTCCCTCA) | 0.149
AGGTTCCCATGGACCGGTTTTCCCGGTAATCCGTATTTGTG (site AGGGTCCCTCA) | 0.0158
AGGTTCCCATGGACCGGTTTTCCCGGTAATCCGTATTTGTG (site AGGTACCCTCA) | 0.00814
AGGTTCCCATGGACCGGTTTTCCCGGTAATCCGTATTTGTG (site AGGTCCCCTCA) | 0.019
AGGTTCCCATGGACCGGTTTTCCCGGTAATCCGTATTTGTG (site AGGTGCCCTCA) | 0.018
AGGTTCCCATGGACCGGTTTTCCCGGTAATCCGTATTTGTG (site AGGTTACCTCA) | 0.00985
AGGTTCCCATGGACCGGTTTTCCCGGTAATCCGTATTTGTG (site AGGTTCACTCA) | 0.0115
AGGTTCCCATGGACCGGTTTTCCCGGTAATCCGTATTTGTG (site AGGTTCCCTAA) | 0.00843
AGGTTCCCATGGACCGGTTTTCCCGGTAATCCGTATTTGTG (site AGGTTCCCTCA) | 0.152
AGGTTCCCATGGACCGGTTTTCCCGGTAATCCGTATTTGTG (site AGGTTCCCTCC) | 0.014
